# Measured values taken from patent US6540991B2, “Stabilized active materials” (3M Innovative Properties Company, priority 2001, dated 2003).
# Test: typical duration of codlemone in the intended environment (stabilization of insect pheromone)
# Assay type: physicochemical
# Details: dissipation into the intended environment; codling moth pheromone, nonstabilized vs stabilized with 2,2′-Methylenebis(6-t-butyl-p-cresol)
# Source text: Because the insect pheromone can be provided in a stabilized format, a long lasting delivery system may be engineered to provide slow release over a long duration of time. The stabilized format allows for a slow release from a single application without spiking as may be obtainable from multiple applications. “Spiking” as used herein may be triggered by instantaneous or short-term release of the active agents from the shell. Since a mating cycle of a given insect pest may last up to 4-6 weeks in length, the slow release of an insect pheromone may be desirable to provide effective control of insect mating over the duration. Thus, the present invention may be used to control the release rate of insect pheromones thereby effectively controlling and disrupting the mating behavior of the species in a particular intended environment. For example, an insect pheromone for codling moth can be made to steadily dissipate into the intended environment over the duration of a mating cycle for codling moth. A typical duration for a nonstabilized codlemone, the insect pheromone for the codling moth is less than 1 week, as against about 6 weeks for codlemone stabilized according to the present invention.
structure (smiles),measurement,value
"C/C=C/C=C/CCCCCCCO [nonstabilized codlemone, E,E-8,10 C12 alcohol]",typical duration,less than 1 week
